# Results from article PMC7501296, “Rapid and direct control of target protein levels with VHL-recruiting dTAG molecules” (Nature Communications, 2020).
# Test system: EWS502 FKBP12^F36V-EWS/FLI; EWS/FLI^−/− cells
# Test: Synergy assessment: antiproliferation of EWS502 FKBP12F36V-EWS/FLI; EWS/FLI-/- cells co-treated with dTAGV-1 and dBET6, 72 h
# Type: cell-based
# Protocol: Cell viability was assayed in 2D-adherent or ultra-low adherent 3D-spheroids using CellTiter-Glo (Promega)[6],[15]. Luminescence was measured on an Envision 2104 plate reader (PerkinElmer) and Fluostar Omega Reader (BMG Labtech) and data was analyzed using GraphPad PRISM v8. Synergy assessments were performed using CellTiter-Glo (Promega) with the following modifications to the protocol described in the ref. [34]. In brief, EWS502 cells were plated at 1000 cells per well in 50 µL of appropriate media in 384-well white culture plates (Corning) allowed to adhere overnight, and 100 nL of compounds were added using a Janus Workstation pin tool (PerkinElmer) for 72 h. Cell viability was measured by addition of 10 µL of CellTiter-glo (Promega), followed by incubation for 15 minutes at room temperature. Luminescence was measured on an Envision 2104 plate reader (PerkinElmer) and data was analyzed using GraphPad PRISM v8.
# [1] = co-treatment 19.5 nM dTAGV-1 (log10[M] -7.70927) + 1 nM dBET6 (log10[M] -9.0103)
# [2] = co-treatment 19.5 nM dTAGV-1 (log10[M] -7.70927) + 4 nM dBET6 (log10[M] -8.40824)
# [3] = co-treatment 19.5 nM dTAGV-1 (log10[M] -7.70927) + 15.6 nM dBET6 (log10[M] -7.80618)
# [4] = co-treatment 19.5 nM dTAGV-1 (log10[M] -7.70927) + 62.5 nM dBET6 (log10[M] -7.20412)
# [5] = co-treatment 19.5 nM dTAGV-1 (log10[M] -7.70927) + 250 nM dBET6 (log10[M] -6.60206)
# [6] = co-treatment 78 nM dTAGV-1 (log10[M] -7.10721) + 1 nM dBET6 (log10[M] -9.0103)
# [7] = co-treatment 78 nM dTAGV-1 (log10[M] -7.10721) + 4 nM dBET6 (log10[M] -8.40824)
# [8] = co-treatment 78 nM dTAGV-1 (log10[M] -7.10721) + 15.6 nM dBET6 (log10[M] -7.80618)
# [9] = co-treatment 78 nM dTAGV-1 (log10[M] -7.10721) + 62.5 nM dBET6 (log10[M] -7.20412)
# [10] = co-treatment 78 nM dTAGV-1 (log10[M] -7.10721) + 250 nM dBET6 (log10[M] -6.60206)
# [11] = co-treatment 312.5 nM dTAGV-1 (log10[M] -6.50515) + 1 nM dBET6 (log10[M] -9.0103)
# [12] = co-treatment 312.5 nM dTAGV-1 (log10[M] -6.50515) + 4 nM dBET6 (log10[M] -8.40824)
# [13] = co-treatment 312.5 nM dTAGV-1 (log10[M] -6.50515) + 15.6 nM dBET6 (log10[M] -7.80618)
# [14] = co-treatment 312.5 nM dTAGV-1 (log10[M] -6.50515) + 62.5 nM dBET6 (log10[M] -7.20412)
# [15] = co-treatment 312.5 nM dTAGV-1 (log10[M] -6.50515) + 250 nM dBET6 (log10[M] -6.60206)
# [16] = co-treatment 1250 nM dTAGV-1 (log10[M] -5.90309) + 1 nM dBET6 (log10[M] -9.0103)
# [17] = co-treatment 1250 nM dTAGV-1 (log10[M] -5.90309) + 4 nM dBET6 (log10[M] -8.40824)
# [18] = co-treatment 1250 nM dTAGV-1 (log10[M] -5.90309) + 15.6 nM dBET6 (log10[M] -7.80618)
# [19] = co-treatment 1250 nM dTAGV-1 (log10[M] -5.90309) + 62.5 nM dBET6 (log10[M] -7.20412)
# [20] = co-treatment 1250 nM dTAGV-1 (log10[M] -5.90309) + 250 nM dBET6 (log10[M] -6.60206)
# [21] = co-treatment 5000 nM dTAGV-1 (log10[M] -5.30103) + 1 nM dBET6 (log10[M] -9.0103)
# [22] = co-treatment 5000 nM dTAGV-1 (log10[M] -5.30103) + 4 nM dBET6 (log10[M] -8.40824)
# [23] = co-treatment 5000 nM dTAGV-1 (log10[M] -5.30103) + 15.6 nM dBET6 (log10[M] -7.80618)
# [24] = co-treatment 5000 nM dTAGV-1 (log10[M] -5.30103) + 62.5 nM dBET6 (log10[M] -7.20412)
# [25] = co-treatment 5000 nM dTAGV-1 (log10[M] -5.30103) + 250 nM dBET6 (log10[M] -6.60206)
smiles,measurement,setting,value
Cc1sc2c(c1C)C(c1ccc(Cl)cc1)=N[C@@H](CC(=O)NCCCCCCCCNC(=O)COc1cccc3c1C(=O)N(C1CCC(=O)NC1=O)C3=O)c1nnc(C)n1-2 (stereo partly drawn) [dBET6],Average DMSO-normalized ratio used for CI calculation,1 nM dBET6 + 19.5 nM dTAGV-1,0.9811
same,Average DMSO-normalized ratio used for CI calculation,1 nM dBET6 + 78 nM dTAGV-1,1.134
same,Average DMSO-normalized ratio used for CI calculation,1 nM dBET6 + 312.5 nM dTAGV-1,1.111
same,Average DMSO-normalized ratio used for CI calculation,1 nM dBET6 + 1250 nM dTAGV-1,0.8948
same,Average DMSO-normalized ratio used for CI calculation,1 nM dBET6 + 5000 nM dTAGV-1,0.8015
same,Average DMSO-normalized ratio used for CI calculation,1 nM dBET6 alone,0.8411
same,Average DMSO-normalized ratio used for CI calculation,4 nM dBET6 + 19.5 nM dTAGV-1,0.9809
same,Average DMSO-normalized ratio used for CI calculation,4 nM dBET6 + 78 nM dTAGV-1,1.057
same,Average DMSO-normalized ratio used for CI calculation,4 nM dBET6 + 312.5 nM dTAGV-1,1.0595
same,Average DMSO-normalized ratio used for CI calculation,4 nM dBET6 + 1250 nM dTAGV-1,0.7491
same,Average DMSO-normalized ratio used for CI calculation,4 nM dBET6 + 5000 nM dTAGV-1,0.4793
same,Average DMSO-normalized ratio used for CI calculation,4 nM dBET6 alone,0.8957
same,Average DMSO-normalized ratio used for CI calculation,15.6 nM dBET6 + 19.5 nM dTAGV-1,0.798
same,Average DMSO-normalized ratio used for CI calculation,15.6 nM dBET6 + 78 nM dTAGV-1,0.8317
same,Average DMSO-normalized ratio used for CI calculation,15.6 nM dBET6 + 312.5 nM dTAGV-1,0.7228
same,Average DMSO-normalized ratio used for CI calculation,15.6 nM dBET6 + 1250 nM dTAGV-1,0.4425
same,Average DMSO-normalized ratio used for CI calculation,15.6 nM dBET6 + 5000 nM dTAGV-1,0.279
same,Average DMSO-normalized ratio used for CI calculation,15.6 nM dBET6 alone,0.7797
same,Average DMSO-normalized ratio used for CI calculation,62.5 nM dBET6 + 19.5 nM dTAGV-1,0.5057
same,Average DMSO-normalized ratio used for CI calculation,62.5 nM dBET6 + 78 nM dTAGV-1,0.5414
same,Average DMSO-normalized ratio used for CI calculation,62.5 nM dBET6 + 312.5 nM dTAGV-1,0.4908
same,Average DMSO-normalized ratio used for CI calculation,62.5 nM dBET6 + 1250 nM dTAGV-1,0.3106
same,Average DMSO-normalized ratio used for CI calculation,62.5 nM dBET6 + 5000 nM dTAGV-1,0.2615
same,Average DMSO-normalized ratio used for CI calculation,62.5 nM dBET6 alone,0.5245
same,Average DMSO-normalized ratio used for CI calculation,250 nM dBET6 + 19.5 nM dTAGV-1,0.3576
same,Average DMSO-normalized ratio used for CI calculation,250 nM dBET6 + 78 nM dTAGV-1,0.3678
same,Average DMSO-normalized ratio used for CI calculation,250 nM dBET6 + 312.5 nM dTAGV-1,0.3326
same,Average DMSO-normalized ratio used for CI calculation,250 nM dBET6 + 1250 nM dTAGV-1,0.2968
same,Average DMSO-normalized ratio used for CI calculation,250 nM dBET6 + 5000 nM dTAGV-1,0.2503
same,Average DMSO-normalized ratio used for CI calculation,250 nM dBET6 alone,0.3398
same,"DMSO-normalized antiproliferation, Mean",[1],98.11
same,"DMSO-normalized antiproliferation, Mean",[2],98.09
same,"DMSO-normalized antiproliferation, Mean",[3],79.8
same,"DMSO-normalized antiproliferation, Mean",[4],50.57
same,"DMSO-normalized antiproliferation, Mean",[5],35.76
same,"DMSO-normalized antiproliferation, Mean",[6],113.36
same,"DMSO-normalized antiproliferation, Mean",[7],105.67
same,"DMSO-normalized antiproliferation, Mean",[8],83.17
same,"DMSO-normalized antiproliferation, Mean",[9],54.14
same,"DMSO-normalized antiproliferation, Mean",[10],36.78
same,"DMSO-normalized antiproliferation, Mean",[11],111.14
same,"DMSO-normalized antiproliferation, Mean",[12],105.95
same,"DMSO-normalized antiproliferation, Mean",[13],72.28
same,"DMSO-normalized antiproliferation, Mean",[14],49.08
same,"DMSO-normalized antiproliferation, Mean",[15],33.26
same,"DMSO-normalized antiproliferation, Mean",[16],89.48
same,"DMSO-normalized antiproliferation, Mean",[17],74.91
same,"DMSO-normalized antiproliferation, Mean",[18],44.25
same,"DMSO-normalized antiproliferation, Mean",[19],31.06
same,"DMSO-normalized antiproliferation, Mean",[20],29.68
same,"DMSO-normalized antiproliferation, Mean",[21],80.15
same,"DMSO-normalized antiproliferation, Mean",[22],47.93
same,"DMSO-normalized antiproliferation, Mean",[23],27.9
same,"DMSO-normalized antiproliferation, Mean",[24],26.15
same,"DMSO-normalized antiproliferation, Mean",[25],25.03
same,Synergy with VHL-mediated EWS/FLI degradation (dTAGV-1),combination index,synergized strongly
same,"DMSO-normalized antiproliferation, Mean","dBET6 log10[M] -6.60206, with DMSO (no dTAGV-1)",33.98
same,"DMSO-normalized antiproliferation, Mean","dBET6 log10[M] -7.20412, with DMSO (no dTAGV-1)",52.45
same,"DMSO-normalized antiproliferation, Mean","dBET6 log10[M] -7.80618, with DMSO (no dTAGV-1)",77.97
same,"DMSO-normalized antiproliferation, Mean","dBET6 log10[M] -8.40824, with DMSO (no dTAGV-1)",89.57
same,"DMSO-normalized antiproliferation, Mean","dBET6 log10[M] -9.0103, with DMSO (no dTAGV-1)",84.11
CC[C@H](C(=O)N1CCCC[C@H]1C(=O)O[C@H](CCc1ccc(OC)c(OC)c1)c1ccccc1OCC(=O)NCCCCCCC(=O)N[C@H](C(=O)N1C[C@H](O)C[C@H]1C(=O)N[C@@H](C)c1ccc(-c2scnc2C)cc1)C(C)(C)C)c1cc(OC)c(OC)c(OC)c1 [dTAG^V-1],Average DMSO-normalized ratio used for CI calculation,19.5 nM dTAGV-1 alone,0.9622
same,Average DMSO-normalized ratio used for CI calculation,78 nM dTAGV-1 alone,1.188
same,Average DMSO-normalized ratio used for CI calculation,312.5 nM dTAGV-1 alone,1.089
same,Average DMSO-normalized ratio used for CI calculation,1250 nM dTAGV-1 alone,1.112
same,Average DMSO-normalized ratio used for CI calculation,5000 nM dTAGV-1 alone,1.06
same,"DMSO-normalized antiproliferation, Mean",[1],98.11
same,"DMSO-normalized antiproliferation, Mean",[2],98.09
same,"DMSO-normalized antiproliferation, Mean",[3],79.8
same,"DMSO-normalized antiproliferation, Mean",[4],50.57
same,"DMSO-normalized antiproliferation, Mean",[5],35.76
same,"DMSO-normalized antiproliferation, Mean",[6],113.36
same,"DMSO-normalized antiproliferation, Mean",[7],105.67
same,"DMSO-normalized antiproliferation, Mean",[8],83.17
same,"DMSO-normalized antiproliferation, Mean",[9],54.14
same,"DMSO-normalized antiproliferation, Mean",[10],36.78
same,"DMSO-normalized antiproliferation, Mean",[11],111.14
same,"DMSO-normalized antiproliferation, Mean",[12],105.95
same,"DMSO-normalized antiproliferation, Mean",[13],72.28
same,"DMSO-normalized antiproliferation, Mean",[14],49.08
same,"DMSO-normalized antiproliferation, Mean",[15],33.26
same,"DMSO-normalized antiproliferation, Mean",[16],89.48
same,"DMSO-normalized antiproliferation, Mean",[17],74.91
same,"DMSO-normalized antiproliferation, Mean",[18],44.25
same,"DMSO-normalized antiproliferation, Mean",[19],31.06
same,"DMSO-normalized antiproliferation, Mean",[20],29.68
same,"DMSO-normalized antiproliferation, Mean",[21],80.15
same,"DMSO-normalized antiproliferation, Mean",[22],47.93
same,"DMSO-normalized antiproliferation, Mean",[23],27.9
same,"DMSO-normalized antiproliferation, Mean",[24],26.15
same,"DMSO-normalized antiproliferation, Mean",[25],25.03
same,"DMSO-normalized antiproliferation, Mean","dTAGV-1 log10[M] -5.30103, with DMSO (no dBET6)",106.03
same,"DMSO-normalized antiproliferation, Mean","dTAGV-1 log10[M] -5.90309, with DMSO (no dBET6)",111.22
same,"DMSO-normalized antiproliferation, Mean","dTAGV-1 log10[M] -6.50515, with DMSO (no dBET6)",108.9
same,"DMSO-normalized antiproliferation, Mean","dTAGV-1 log10[M] -7.10721, with DMSO (no dBET6)",118.75
same,"DMSO-normalized antiproliferation, Mean","dTAGV-1 log10[M] -7.70927, with DMSO (no dBET6)",96.22
